*1 amine or outer side, *2 acyl side, *3 side chain or, on linkers, in order; H or OH if unused. Where a SMILES comes first, the peptide text is derived from it. Side-chain parts run from the residue outwards. [ ]: non-standard residue; d: D form. The star is where a group is joined. C20 diacid = O=C(O)CCCCCCCCCCCCCCCCCCC(=O)*; C18 diacid = O=C(O)CCCCCCCCCCCCCCCCC(=O)*; γGlu = O=C(O)[C@H](CCC(=O)[*:2])N[*:1]; NMeI = CC[C@H](C)[C@H](NC)C(=O)O; AEEA = NCCOCCOCC(=O)O; Aib = CC(C)(N)C(=O)O
Experiments:
[1] = tested on: Sprague Dawley rats; assay: Effect on systolic blood pressure, telemetry in Sprague Dawley rats; assay type: in vivo, rat; settings: 0.1 mg/kg SC
Summary of the method: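 Values are % change from a 1 h pre-dose baseline in systolic pressure, tracked by telemetry for up to 48 hours after a single 0.1 mg/kg subcutaneous dose. Rats (Sprague Dawley, n=2 per peptide) carried aortic catheters and recovered at least 10 days post-surgery; duration of action marks the last time point still showing an effect.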

[2] = In vitro subcutaneous tissue supernatant (SCts) stability and metabolite identification, rat; assay type: in vitro ADME; set-up: remaining at 2 h: dose or concentration left out as unconfirmed; settings: male, Sprague Dawley; rat subcutaneous tissue supernatant (SCts), 37° C, 2 h
[3] = Chemical stability in buffer (pH 7.4 / pH 4.5), % purity loss; assay type: physicochemical; settings: 100 mM phosphate buffer pH 7.4; 40° C. vs 5° C.; 14 or 28 days
Summary of the method: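 LC-UV gave % loss after 14 or 28 days of storage at 5 °C or 40 °C. Samples were diluted supernatants from compound incubated 1 h at room temperature at 10 mg/mL target, in 100 mM acetate pH 4.5 or 100 mM phosphate pH 7.4.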

[4] = Pharmacokinetics in male Sprague Dawley rats after subcutaneous administration; assay type: in vivo; settings: plasma, rat, SC, 0.05 mg/kg
[5] = target: T1, rat CRF2 a (Rattus norvegicus, UniProt P47866); assay: Activity at rat CRF2 a, cAMP assay in A7R5 rat aortic smooth muscle cells; assay type: cell-based; settings: 0% HSA, 100% = Sauvagine at 100 nM
T1 construct: host or cells: A7R5 rat aortic smooth muscle cells
T1 sequence (P47866 27-431 isoform P47866-2 limits assumed): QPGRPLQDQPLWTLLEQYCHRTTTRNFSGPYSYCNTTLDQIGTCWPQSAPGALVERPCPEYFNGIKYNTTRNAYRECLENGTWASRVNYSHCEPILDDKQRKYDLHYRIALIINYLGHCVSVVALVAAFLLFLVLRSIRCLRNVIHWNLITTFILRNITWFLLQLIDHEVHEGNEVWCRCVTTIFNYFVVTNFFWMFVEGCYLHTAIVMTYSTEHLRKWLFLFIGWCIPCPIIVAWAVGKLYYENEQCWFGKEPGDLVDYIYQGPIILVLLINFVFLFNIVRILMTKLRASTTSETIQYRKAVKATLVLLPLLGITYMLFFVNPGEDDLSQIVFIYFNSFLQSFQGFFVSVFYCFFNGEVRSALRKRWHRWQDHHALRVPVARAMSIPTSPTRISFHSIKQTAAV
Description: The A7R5 rat aortic smooth muscle cell line used in this study was purchased from ATCC.
Cells were grown in a 10 cm dish at 37° C./5% CO2 in medium (DMEM/10% FBS) to near confluence. At that stage, cells were harvested, resuspended to 10 million/mL in culture medium and with 5% DMSO. 1 mL vial aliquots were slowly frozen to −80° C. in isopropanol and then transferred in liquid nitrogen for storage.
These vials were used to run the experiment following the procedure reported in the previous paragraph, except for the compound used in the control well to define the 100% activation (Sauvagine at 100 nM) and the cell density (final cell density: 5000 cells/well).

[6] = target: T2, CFR1R receptor (Homo sapiens, UniProt P34998); assay: Activity at anti-target CFR1R receptor, cAMP assay in CRF1R-overexpression CHO-K1 cells; assay type: cell-based; settings: 100% = Sauvagine at 100 nM; for EC50: cAMP
T2 construct: host or cells: CHO-K1 (clone 2)
T2 sequence (P34998 24-415): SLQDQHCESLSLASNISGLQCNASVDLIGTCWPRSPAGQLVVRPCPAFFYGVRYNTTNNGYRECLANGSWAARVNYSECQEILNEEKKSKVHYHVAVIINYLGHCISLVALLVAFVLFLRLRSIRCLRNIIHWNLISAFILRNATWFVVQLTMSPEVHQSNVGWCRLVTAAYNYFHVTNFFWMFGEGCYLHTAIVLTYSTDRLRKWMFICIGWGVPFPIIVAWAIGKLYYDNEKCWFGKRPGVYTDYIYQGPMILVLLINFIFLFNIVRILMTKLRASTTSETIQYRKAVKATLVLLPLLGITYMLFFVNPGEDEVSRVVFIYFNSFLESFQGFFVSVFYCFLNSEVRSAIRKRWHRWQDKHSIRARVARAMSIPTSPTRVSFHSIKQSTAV
Summary of the method: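 Uses frozen stocks of CHO-K1 clone 2 cells overexpressing human CRF1R, plated at 4000 cells/well final, with cAMP measured by the same protocol as the TeloHAEC line. Full-activation control: 100 nM Sauvagine.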

[7] = target: T3, human CRF2a receptor (Homo sapiens, UniProt Q13324); assay: Activity at human CRF2a receptor, cAMP functional assay in TeloHEAC cells; assay type: cell-based; settings: TeloHEAC cells stably expressing human CRF2a receptor, relative to urocortin 2 (100 nM = 100%)
T3 construct: expressed in transfected cells; host or cells: TeloHEAC cells
T3 sequence (Q13324 1-411): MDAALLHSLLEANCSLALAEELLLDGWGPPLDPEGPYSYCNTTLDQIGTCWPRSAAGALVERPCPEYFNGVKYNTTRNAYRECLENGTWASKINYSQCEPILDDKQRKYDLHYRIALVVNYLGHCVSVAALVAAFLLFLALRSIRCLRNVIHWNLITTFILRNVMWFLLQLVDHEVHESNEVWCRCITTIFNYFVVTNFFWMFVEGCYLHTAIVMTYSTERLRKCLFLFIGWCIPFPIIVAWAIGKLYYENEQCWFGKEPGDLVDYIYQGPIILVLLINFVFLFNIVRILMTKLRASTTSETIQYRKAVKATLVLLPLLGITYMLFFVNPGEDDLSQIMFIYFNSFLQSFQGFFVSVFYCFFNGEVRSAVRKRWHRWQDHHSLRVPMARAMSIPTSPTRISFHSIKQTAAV
Summary of the method: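 TeloHEAC cells stably expressing human CRF2a (10000 cells/well, suspended in HBSS/20 mM HEPES with 2 mM IBMX) were exposed to compounds for 30 min at 37 °C. cAMP was read as the 665/620 nm fluorescence ratio after 1 h at room temperature. EC50 was derived relative to 100 nM urocortin 2, set as 100%.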

| remaining at 2 h [2] | Buffer stability pH 7.4 % purity loss [3] | AUC(0-t) [4] | Cmax [4] | Tmax [4] | half-life [4] | EC50 [5] | Emax (% I) [6] | EC50 [6] | EC50 [7] | Compound | Systolic blood pressure (Mean) % change from baseline, 8 h ([1]; 8 h, n=2) | Systolic blood pressure (Mean) % change from baseline, 12 h ([1]; 12 h, n=2) | Systolic blood pressure (Mean) % change from baseline, 24 h ([1]; 24 h, n=2) | Duration of action ([1]; last time point with an effect on BP still observed) |
| --- | --- | --- | --- | --- | --- | --- | --- | --- | --- | --- | --- | --- | --- | --- |
| 74% | 0.0/Not Tested % | 1710 ng·h/mL | 105 ng/mL | 6 h | 12.6 h | 0.06 nM |  |  |  | CC[C@H](C)[C@H](NC)C(=O)N[C@H](C(=O)N[C@@H](CC(C)C)C(=O)N[C@@H](CO)C(=O)N[C@@H](CC(C)C)C(=O)N[C@@H](CC(=O)O)C(=O)N[C@@H](C(=O)N1CCC[C@H]1C(=O)N[C@H](C(=O)N[C@@H](CCCCN)C(=O)N[C@@H](CC(C)C)C(=O)N[C@@H](CCCCNC(=O)CC[C@H](NC(=O)CCCCCCCCCCCCCCCCC(=O)O)C(=O)O)C(=O)N[C@@H](CCCCN)C(=O)N[C@H](C(=O)N[C@@H](CC(C)C)C(=O)N[C@@H](CC(C)C)C(=O)N[C@@H](CCC(=O)O)C(=O)N[C@@H](CCC(N)=O)C(=O)N[C@@H](CCC(=O)O)C(=O)N[C@@H](CCCCN)C(=O)N[C@@H](CCC(N)=O)C(=O)N[C@@H](CCCCN)C(=O)N[C@@H](C)C(=O)N[C@@H](CCC(N)=O)C(=O)N[C@@H](CCCNC(=N)N)C(=O)N[C@@H](CCC(=O)O)C(=O)N[C@@H](CCC(N)=O)C(=O)N[C@@H](C)C(=O)N[C@@H](CCC(=O)O)C(=O)N[C@H](C(=O)N[C@@H](CC(N)=O)C(=O)NC(C)(C)C(=O)N[C@@H](CCC(N)=O)C(=O)N[C@H](C(=O)N[C@@H](CC(C)C)C(=O)N[C@@H](C)C(=O)N[C@@H](CCC(N)=O)C(=O)N[C@H](C(N)=O)C(C)C)[C@@H](C)CC)[C@@H](C)O)[C@@H](C)CC)[C@@H](C)CC)C(C)C)C(C)C [compound 144] (H-[NMeI]VLSLD[dV]PIKLK([γGlu-C18 diacid])KILLEQEKQKAQREQAETN[Aib]QILAQV-NH2) | −22% | −17% | 1% | 23 h |
|  |  |  |  |  |  | 0.4 nM | 13 % I | > 250 nM | 0.12 nM | CC[C@H](C)[C@H](NC(C)=O)C(=O)N[C@H](C(=O)N[C@@H](CC(C)C)C(=O)N[C@@H](CO)C(=O)N[C@@H](CC(C)C)C(=O)N[C@@H](CC(=O)O)C(=O)N[C@@H](C(=O)N1CCC[C@H]1C(=O)N[C@H](C(=O)N[C@@H](CCCCN)C(=O)N[C@@H](CC(C)C)C(=O)N[C@@H](CCCCNC(=O)COCCOCCNC(=O)CC[C@H](NC(=O)CCCCCCCCCCCCCCCCCCC(=O)O)C(=O)O)C(=O)N[C@@H](CCCCN)C(=O)N[C@H](C(=O)N[C@@H](CC(C)C)C(=O)N[C@@H](CC(C)C)C(=O)N[C@@H](CCC(=O)O)C(=O)N[C@@H](CCC(N)=O)C(=O)N[C@@H](CCC(=O)O)C(=O)N[C@@H](CCCCN)C(=O)N[C@@H](CCC(N)=O)C(=O)N[C@@H](CCCCN)C(=O)N[C@@H](C)C(=O)N[C@@H](CCC(N)=O)C(=O)N[C@@H](CCCNC(=N)N)C(=O)N[C@@H](CCC(=O)O)C(=O)N[C@@H](CCC(N)=O)C(=O)N[C@@H](C)C(=O)N[C@@H](CCC(=O)O)C(=O)N[C@H](C(=O)N[C@@H](CC(N)=O)C(=O)NC(C)(C)C(=O)N[C@@H](CCC(N)=O)C(=O)N[C@H](C(=O)N[C@@H](CC(C)C)C(=O)N[C@@H](C)C(=O)N[C@@H](CCC(N)=O)C(=O)N[C@H](C(N)=O)C(C)C)[C@@H](C)CC)[C@@H](C)O)[C@@H](C)CC)[C@@H](C)CC)C(C)C)C(C)C [compound 232] (Ac-IVLSLD[dV]PIKLK([AEEA-γGlu-C20 diacid])KILLEQEKQKAQREQAETN[Aib]QILAQV-NH2) |  |  |  |  |
|  |  |  |  |  |  | 0.09 nM | 12 % I | > 250 nM | 0.11 nM | CC[C@H](C)[C@H](NC(C)=O)C(=O)N[C@H](C(=O)N[C@@H](CC(C)C)C(=O)N[C@@H](CO)C(=O)N[C@@H](CC(C)C)C(=O)N[C@@H](CC(=O)O)C(=O)N[C@@H](C(=O)N1CCC[C@H]1C(=O)N[C@H](C(=O)N[C@@H](CCCCN)C(=O)N[C@@H](CC(C)C)C(=O)N[C@@H](CCCCNC(=O)COCCOCCNC(=O)COCCOCCNC(=O)CC[C@H](NC(=O)CCCCCCCCCCCCCCCCCCC(=O)O)C(=O)O)C(=O)N[C@@H](CCCCN)C(=O)N[C@H](C(=O)N[C@@H](CC(C)C)C(=O)N[C@@H](CC(C)C)C(=O)N[C@@H](CCC(=O)O)C(=O)N[C@@H](CCC(N)=O)C(=O)N[C@@H](CCC(=O)O)C(=O)N[C@@H](CCCCN)C(=O)N[C@@H](CCC(N)=O)C(=O)N[C@@H](CCCCN)C(=O)N[C@@H](CCCCN)C(=O)N[C@@H](CCC(N)=O)C(=O)N[C@@H](CCCNC(=N)N)C(=O)N[C@@H](CCC(=O)O)C(=O)N[C@@H](CCC(N)=O)C(=O)N[C@@H](C)C(=O)N[C@@H](CCC(=O)O)C(=O)N[C@H](C(=O)N[C@@H](CC(N)=O)C(=O)NC(C)(C)C(=O)N[C@@H](CCC(N)=O)C(=O)N[C@H](C(=O)N[C@@H](CC(C)C)C(=O)N[C@@H](C)C(=O)N[C@@H](CCC(N)=O)C(=O)N[C@H](C(N)=O)C(C)C)[C@@H](C)CC)[C@@H](C)O)[C@@H](C)CC)[C@@H](C)CC)C(C)C)C(C)C [compound 238] (Ac-IVLSLD[dV]PIKLK([AEEA-AEEA-γGlu-C20 diacid])KILLEQEKQKKQREQAETN[Aib]QILAQV-NH2) |  |  |  |  |
|  |  |  |  |  |  | 0.09 nM | 8 % I | > 250 nM | 0.13 nM | CC[C@H](C)[C@H](NC(C)=O)C(=O)N[C@H](C(=O)N[C@@H](CC(C)C)C(=O)N[C@@H](CO)C(=O)N[C@@H](CC(C)C)C(=O)N[C@@H](CC(=O)O)C(=O)N[C@@H](C(=O)N1CCC[C@H]1C(=O)N[C@H](C(=O)N[C@@H](CCCCN)C(=O)N[C@@H](CC(C)C)C(=O)N[C@@H](CCCCNC(=O)CC[C@H](NC(=O)CC[C@H](NC(=O)CCCCCCCCCCCCCCCCCCC(=O)O)C(=O)O)C(=O)O)C(=O)N[C@@H](CCCCN)C(=O)N[C@H](C(=O)N[C@@H](CC(C)C)C(=O)N[C@@H](CC(C)C)C(=O)N[C@@H](CCC(=O)O)C(=O)N[C@@H](CCC(N)=O)C(=O)N[C@@H](CCC(=O)O)C(=O)N[C@@H](CCCCN)C(=O)N[C@@H](CCC(N)=O)C(=O)N[C@@H](CCCCN)C(=O)N[C@@H](CCCCN)C(=O)N[C@@H](CCC(N)=O)C(=O)N[C@@H](CCCNC(=N)N)C(=O)N[C@@H](CCC(=O)O)C(=O)N[C@@H](CCC(N)=O)C(=O)N[C@@H](C)C(=O)N[C@@H](CCC(=O)O)C(=O)N[C@H](C(=O)N[C@@H](CC(N)=O)C(=O)NC(C)(C)C(=O)N[C@@H](CCC(N)=O)C(=O)N[C@H](C(=O)N[C@@H](CC(C)C)C(=O)N[C@@H](C)C(=O)N[C@@H](CCC(N)=O)C(=O)N[C@H](C(N)=O)C(C)C)[C@@H](C)CC)[C@@H](C)O)[C@@H](C)CC)[C@@H](C)CC)C(C)C)C(C)C [compound 243] (Ac-IVLSLD[dV]PIKLK([γGlu-γGlu-C20 diacid])KILLEQEKQKKQREQAETN[Aib]QILAQV-NH2) |  |  |  |  |
